# Columns and labels:
# Assay in all cases: post-emergence herbicidal activity, greenhouse
# Format in all cases: in vivo
# Large Crabgrass = details: Table III, formulated in anhydrous tetrahydrofuran
# From the text: (§1) A good grade of top soil is placed in aluminum pans having holes in the bottom and compacted to a depth of 0.95 to 1.27 cm. from the top of the pan. A predetermined number of seeds of each of several dicotyledonous and moncotyledonous annual plant species and/or vegetative propagules for the perennial plant species were placed on the soil and pressed into the soil surface. The seeds and/or vegetative propagules are covered with soil and leveled. The pans are then placed on a sand bench in the greenhouse and watered from below as needed. After the plants reach the desired age (two to three weeks), each pan, except for the control pans, is removed individually to a spraying chamber and sprayed by means of an atomizer at the rates noted. In the spray solution is an amount of an emulsifying agent mixture to give a spray solution or suspension which contains about 0.4% by weight of the emulsifier. The spray solution or suspension contains a sufficient amount of the candidate chemical in order to give application rates corresponding to those set forth in the tables. The pans were returned to the greenhouse and watered as before and the injury to the plants as compared to the control is observed at approximately two and four weeks and the results recorded. In the tables, WAT means "weeks after treatment."
# (§2) The post-emergent herbicidal activity index used in Tables II and III is as follows:
# (§3) The plant species utilized in these tests are identified by letter in accordance with the following legend: […]
# Common Lambsquarters = details: formulated in anhydrous tetrahydrofuran
# From the text: as §1, §2, §3
# Johnsongrass = details: Table II, formulated in anhydrous tetrahydrofuran
# From the text: as §1, §2, §3
# Hemp Sesbania = details: Table III, formulated in anhydrous tetrahydrofuran
# From the text: as §1, §2, §3
# Yellow Nutsedge = details: Table II, formulated in anhydrous tetrahydrofuran
# From the text: as §1, §2, §3
# Cocklebur = details: formulated in anhydrous tetrahydrofuran
# From the text: as §1, §2, §3
# Morningglory = details: formulated in anhydrous tetrahydrofuran
# From the text: as §1, §2, §3
# Quackgrass = details: Table II, formulated in anhydrous tetrahydrofuran
# From the text: as §1, §2, §3
# Wild Buckwheat = details: Table III, formulated in anhydrous tetrahydrofuran
# From the text: as §1, §2, §3
# Sugar Beet = details: Table III, formulated in anhydrous tetrahydrofuran
# From the text: as §1, §2, §3
smiles,measurement,setting,value
"CCCCOC(=O)CNCP(=O)(O)O[Si](C)(C)C(C)(C)C [Ex. 3, Glycine, N-((([(1,1-Dimethylethyl)Dimethylsilyl]oxy)Hydroxyphosphinyl)Methyl)-, Butyl Ester]",Plant Response Index (T),"Large Crabgrass; 2 WAT, .28 kg/h",3 (75-99% inhibition)
same,Plant Response Index (T),"Large Crabgrass; 4 WAT, 1.1 kg/h",4 (100% inhibition)
same,Plant Response Index (T),"Large Crabgrass; 4 WAT, 5.6 kg/h",4 (100% inhibition)
same,Plant Response Index (T),"Large Crabgrass; 4 WAT, .28 kg/h",4 (100% inhibition)
same,Plant Response Index (E),"Common Lambsquarters; Table II, 2 WAT, 5.6 kg/h",3 (75-99% inhibition)
same,Plant Response Index (E),"Common Lambsquarters; Table II, 2 WAT, 11.2 kg/h",3 (75-99% inhibition)
same,Plant Response Index (E),"Common Lambsquarters; Table II, 4 WAT, 5.6 kg/h",4 (100% inhibition)
same,Plant Response Index (E),"Common Lambsquarters; Table II, 4 WAT, 11.2 kg/h",4 (100% inhibition)
same,Plant Response Index (E),"Common Lambsquarters; Table III, 2 WAT, 1.1 kg/h",3 (75-99% inhibition)
same,Plant Response Index (E),"Common Lambsquarters; Table III, 2 WAT, 5.6 kg/h",4 (100% inhibition)
same,Plant Response Index (E),"Common Lambsquarters; Table III, 2 WAT, .28 kg/h",3 (75-99% inhibition)
same,Plant Response Index (E),"Common Lambsquarters; Table III, 4 WAT, 1.1 kg/h",3 (75-99% inhibition)
same,Plant Response Index (E),"Common Lambsquarters; Table III, 4 WAT, 5.6 kg/h",4 (100% inhibition)
same,Plant Response Index (E),"Common Lambsquarters; Table III, 4 WAT, .28 kg/h",4 (100% inhibition)
same,Plant Response Index (I),"Johnsongrass; 2 WAT, 5.6 kg/h",0 (0-24% inhibition)
same,Plant Response Index (I),"Johnsongrass; 2 WAT, 11.2 kg/h",1 (25-49% inhibition)
same,Plant Response Index (I),"Johnsongrass; 4 WAT, 5.6 kg/h",1 (25-49% inhibition)
same,Plant Response Index (I),"Johnsongrass; 4 WAT, 11.2 kg/h",2 (50-74% inhibition)
same,Plant Response Index (R),"Hemp Sesbania; 2 WAT, 1.1 kg/h",1 (25-49% inhibition)
same,Plant Response Index (R),"Hemp Sesbania; 2 WAT, 5.6 kg/h",4 (100% inhibition)
same,Plant Response Index (R),"Hemp Sesbania; 2 WAT, .28 kg/h",1 (25-49% inhibition)
same,Plant Response Index (R),"Hemp Sesbania; 4 WAT, 1.1 kg/h",1 (25-49% inhibition)
same,Plant Response Index (R),"Hemp Sesbania; 4 WAT, 5.6 kg/h",4 (100% inhibition)
same,Plant Response Index (R),"Hemp Sesbania; 4 WAT, .28 kg/h",0 (0-24% inhibition)
same,Plant Response Index (G),"Yellow Nutsedge; 2 WAT, 5.6 kg/h",1 (25-49% inhibition)
same,Plant Response Index (G),"Yellow Nutsedge; 2 WAT, 11.2 kg/h",1 (25-49% inhibition)
same,Plant Response Index (G),"Yellow Nutsedge; 4 WAT, 5.6 kg/h",2 (50-74% inhibition)
same,Plant Response Index (G),"Yellow Nutsedge; 4 WAT, 11.2 kg/h",2 (50-74% inhibition)
same,Plant Response Index (B),"Cocklebur; Table II, 2 WAT, 5.6 kg/h",1 (25-49% inhibition)
same,Plant Response Index (B),"Cocklebur; Table II, 2 WAT, 11.2 kg/h",1 (25-49% inhibition)
same,Plant Response Index (B),"Cocklebur; Table II, 4 WAT, 5.6 kg/h",1 (25-49% inhibition)
same,Plant Response Index (B),"Cocklebur; Table II, 4 WAT, 11.2 kg/h",2 (50-74% inhibition)
same,Plant Response Index (B),"Cocklebur; Table III, 2 WAT, 1.1 kg/h",2 (50-74% inhibition)
same,Plant Response Index (B),"Cocklebur; Table III, 2 WAT, 5.6 kg/h",2 (50-74% inhibition)
same,Plant Response Index (B),"Cocklebur; Table III, 2 WAT, .28 kg/h",2 (50-74% inhibition)
same,Plant Response Index (B),"Cocklebur; Table III, 4 WAT, 1.1 kg/h",1 (25-49% inhibition)
same,Plant Response Index (B),"Cocklebur; Table III, 4 WAT, 5.6 kg/h",3 (75-99% inhibition)
same,Plant Response Index (B),"Cocklebur; Table III, 4 WAT, .28 kg/h",1 (25-49% inhibition)
same,Plant Response Index (D),"Morningglory; Table II, 2 WAT, 5.6 kg/h",1 (25-49% inhibition)
same,Plant Response Index (D),"Morningglory; Table II, 2 WAT, 11.2 kg/h",1 (25-49% inhibition)
same,Plant Response Index (D),"Morningglory; Table II, 4 WAT, 5.6 kg/h",1 (25-49% inhibition)
same,Plant Response Index (D),"Morningglory; Table II, 4 WAT, 11.2 kg/h",2 (50-74% inhibition)
same,Plant Response Index (D),"Morningglory; Table III, 2 WAT, 1.1 kg/h",2 (50-74% inhibition)
same,Plant Response Index (D),"Morningglory; Table III, 2 WAT, 5.6 kg/h",2 (50-74% inhibition)
same,Plant Response Index (D),"Morningglory; Table III, 2 WAT, .28 kg/h",1 (25-49% inhibition)
same,Plant Response Index (D),"Morningglory; Table III, 4 WAT, 1.1 kg/h",2 (50-74% inhibition)
same,Plant Response Index (D),"Morningglory; Table III, 4 WAT, 5.6 kg/h",2 (50-74% inhibition)
same,Plant Response Index (D),"Morningglory; Table III, 4 WAT, .28 kg/h",1 (25-49% inhibition)
same,Plant Response Index (H),"Quackgrass; 2 WAT, 5.6 kg/h",0 (0-24% inhibition)
same,Plant Response Index (H),"Quackgrass; 2 WAT, 11.2 kg/h",3 (75-99% inhibition)
same,Plant Response Index (H),"Quackgrass; 4 WAT, 5.6 kg/h",1 (25-49% inhibition)
same,Plant Response Index (H),"Quackgrass; 4 WAT, 11.2 kg/h",3 (75-99% inhibition)
same,Plant Response Index (Q),"Wild Buckwheat; 2 WAT, 1.1 kg/h",2 (50-74% inhibition)
same,Plant Response Index (Q),"Wild Buckwheat; 2 WAT, 5.6 kg/h",3 (75-99% inhibition)
same,Plant Response Index (Q),"Wild Buckwheat; 2 WAT, .28 kg/h",1 (25-49% inhibition)
same,Plant Response Index (Q),"Wild Buckwheat; 4 WAT, 1.1 kg/h",2 (50-74% inhibition)
same,Plant Response Index (Q),"Wild Buckwheat; 4 WAT, 5.6 kg/h",4 (100% inhibition)
same,Plant Response Index (Q),"Wild Buckwheat; 4 WAT, .28 kg/h",0 (0-24% inhibition)
same,Plant Response Index (M),"Sugar Beet; 2 WAT, 1.1 kg/h",1 (25-49% inhibition)
same,Plant Response Index (M),"Sugar Beet; 2 WAT, 5.6 kg/h",2 (50-74% inhibition)
same,Plant Response Index (M),"Sugar Beet; 2 WAT, .28 kg/h",0 (0-24% inhibition)
same,Plant Response Index (M),"Sugar Beet; 4 WAT, 1.1 kg/h",1 (25-49% inhibition)
same,Plant Response Index (M),"Sugar Beet; 4 WAT, 5.6 kg/h",3 (75-99% inhibition)
same,Plant Response Index (M),"Sugar Beet; 4 WAT, .28 kg/h",0 (0-24% inhibition)

# From patent US4471131A, “Novel silyl esters of N-phosphonomethylglycine” (Monsanto Company, priority 1983, dated 1984)
